Measured values published in US20240148821A1, “PHARMACEUTICAL USE OF CYCLIC PEPTIDE COMPOUND” (CHUGAI SEIYAKU KABUSHIKI KAISHA, priority 2021, published 2024).
Numbered stars: 1 amine (or outer) side, 2 acyl side, 3 side chain; on linkers, the order of the positions; unused ones are H or OH. Bridge positions count the residues as written; N and C are the ends. Square brackets hold non-standard residues; d marks the D form. Peptide text beside a SMILES is read from it. * marks the point of attachment. hPhe(3-Cl-4-CF3) = N[C@@H](CCc1ccc(C(F)(F)F)c(Cl)c1)C(=O)O; hPhe(3-F,4-CF3) = N[C@@H](CCc1ccc(C(F)(F)F)c(F)c1)C(=O)O; NEtPhe(4-CF3) = CCN[C@@H](Cc1ccc(C(F)(F)F)cc1)C(=O)O; X33 = O=C([C@H](CCc1c(F)c(F)c(F)c(F)c1F)N[*:1])[*:2]; NEtPhe(4-Me) = CCN[C@@H](Cc1ccc(C)cc1)C(=O)O; NMePhe(4-Cl) = CN[C@@H](Cc1ccc(Cl)cc1)C(=O)O; NMePhe(4-Me) = CN[C@@H](Cc1ccc(C)cc1)C(=O)O; NMedβ3hAla = C[C@H](CC(=O)[*:2])N(C)[*:1]; NMeNva(5,5-F2) = CN[C@@H](CCC(F)F)C(=O)O; NMeGly(cPent) = CN[C@H](C(=O)O)C1CCCC1; NMeCha = CN[C@@H](CC1CCCCC1)C(=O)O; Hyp = O=C(O)[C@@H]1C[C@@H](O)CN1; NMeF = CN[C@@H](Cc1ccccc1)C(=O)O; NMeI = CC[C@H](C)[C@H](NC)C(=O)O; NMeD = CN[C@@H](CC(=O)O)C(=O)O; NMeL = CN[C@@H](CC(C)C)C(=O)O; NMeV = CN[C@H](C(=O)O)C(C)C; d(β3hA) = C[C@@H](N)CC(=O)O; NMeA = CN[C@@H](C)C(=O)O; NMeAib = CNC(C)(C)C(=O)O; Piperidide = C1CCN(*)CC1; Pyrrolidide = C1CCN(*)C1; Ac5c = NC1(C(=O)O)CCCC1; Aze = O=C(O)[C@@H]1CCN1; Sar = CNCC(=O)O

Each compound was assayed against protein-protein interaction between Kras and SOS1 (biotin-tagged human Kras loaded with GDP, His-tagged human SOS1) (Homo sapiens (Human), UniProt P01116, G12D) (assay: Protein-protein interaction inhibition between Kras and SOS1 (KrasG12D-SOS PPI) using AlphaScreen). Conditions: AlphaScreen; biotin-tagged human Kras loaded with GDP, His-tagged human SOS1; read-out: KRAS G12D-SOS PPI IC50.
Type: biochemical
Work on CC[C@H](C)[C@@H]1NC(=O)[C@H]([C@@H](C)CC)N(C)C(=O)C[C@@H](C)N(C)C(=O)[C@H](C(C)C)N(C)C(=O)C(C)(C)N(C)C(=O)[C@@H]2CCCN2C(=O)[C@H](CCc2ccc(C(F)(F)F)c(Cl)c2)NC(=O)CN(C)C(=O)[C@H](CC2CCCCC2)N(C)C(=O)[C@@H]2CCN2C(=O)[C@H](C)N(C)C1=O [Compound 2159, (5S,8S,11S,15R,18S,23aS,29S,35S,37aS)-8,11-di((S)-sec-butyl)-29-(3-chloro-4-(trifluoromethyl)phenethyl)-35-(cylohexylmethyl)-18-isopropyl-5,6,12,15,16,19,21,21,22,33,36-undecamethyltetracosahydro-2H-azeto[2,1-u]pyrrolo[2,1-i] [1,4,7,10,13,16,19,22,25,28,31]undecaazacyclotetratriacontyne-4,7,10,13,17,20,23,28,31,34,37(14H)-undecone] (cyclo([Aze][NMeCha][Sar][hPhe(3-Cl-4-CF3)]P[NMeAib][NMeV][NMedβ3hAla][NMeI]I[NMeA])) yielded an IC50 of 3.5 nM.
For CCO[C@@H]1C[C@H]2C(=O)NC3(CCCC3)C(=O)N(C)[C@@H]([C@@H](C)CC)C(=O)N(C)[C@H](C)CC(=O)N(C)[C@@H](CC(C)C)C(=O)N[C@@H]([C@@H](C)CC)C(=O)N(C)[C@@H](C)C(=O)N3CC[C@H]3C(=O)N(CC)[C@@H](Cc3ccc(C)cc3)C(=O)N(C)CC(=O)N[C@@H](CCc3ccc(C(F)(F)F)c(Cl)c3)C(=O)N2C1 [Compound 951] (cyclo([Ac5c][NMeI][NMedβ3hAla][NMeL]I[NMeA][Aze][NEtPhe(4-Me)][Sar][hPhe(3-Cl-4-CF3)][Hyp](Et))), the IC50 was 7.9 nM.
Compound CCO[C@@H]1C[C@H]2C(=O)NC3(CCCC3)C(=O)N(C)[C@@H](C3CCCC3)C(=O)N(C)[C@H](C)CC(=O)N(C)[C@@H](CC(C)C)C(=O)N[C@@H]([C@@H](C)CC)C(=O)N[C@@H](C)C(=O)N3CC[C@H]3C(=O)N(CC)[C@@H](Cc3ccc(C(F)(F)F)cc3)C(=O)N(C)CC(=O)N[C@@H](CCc3ccc(C(F)(F)F)c(Cl)c3)C(=O)N2C1 [Compound 401] (cyclo(A[Aze][NEtPhe(4-CF3)][Sar][hPhe(3-Cl-4-CF3)][Hyp](Et)[Ac5c][NMeGly(cPent)][NMedβ3hAla][NMeL]I)) has an IC50 of 3.6 nM.
Work on CC[C@H](C)[C@@H]1NC(=O)[C@H](CC(C)C)N(C)C(=O)C[C@@H](C(=O)N2CCCC2)N(C)C(=O)[C@H]([C@@H](C)CC)N(C)C(=O)C2(CCCC2)NC(=O)[C@@H]2CCCN2C(=O)[C@H](CCc2ccc(C(F)(F)F)c(F)c2)NC(=O)CN(C)C(=O)[C@H](Cc2ccc(C)cc2)N(C)C(=O)[C@@H]2CCN2C(=O)[C@H](C)N(C)C1=O [Compound 44] ([NMeL]I[NMeA][Aze][NMePhe(4-Me)][Sar][hPhe(3-F,4-CF3)]P[Ac5c][NMeI][NMeD]-Pyrrolidide; lactam N-11) yielded an IC50 of 1.1 nM.
For CC[C@H](C)[C@@H]1NC(=O)[C@H](CC(C)C)N(C)C(=O)C[C@@H](C)N(C)C(=O)[C@H](C2CCCC2)N(C)C(=O)C2(CCCC2)NC(=O)[C@@H]2CCCN2C(=O)[C@H](CCc2ccc(C(F)(F)F)c(Cl)c2)NC(=O)CN(C)C(=O)[C@H](C2CCCC2)N(C)C(=O)[C@@H]2CCN2C(=O)[C@H](C)N(C)C1=O [Compound 1046] (cyclo([Ac5c][NMeGly(cPent)][NMedβ3hAla][NMeL]I[NMeA][Aze][NMeGly(cPent)][Sar][hPhe(3-Cl-4-CF3)]P)), the IC50 was 4.6 nM.
CC[C@H](C)[C@@H]1NC(=O)[C@H](CCC(F)F)N(C)C(=O)C[C@@H](C(=O)N2CCCCC2)N(C)C(=O)[C@H](C(C)C)N(C)C(=O)C2(CCCC2)NC(=O)[C@@H]2CCCN2C(=O)[C@H](CCc2ccc(C(F)(F)F)c(Cl)c2)NC(=O)CN(C)C(=O)[C@H](CC2CCCCC2)N(C)C(=O)[C@@H]2CCN2C(=O)[C@H](C)N(C)C1=O [Compound 1797] ([NMeNva(5,5-F2)]I[NMeA][Aze][NMeCha][Sar][hPhe(3-Cl-4-CF3)]P[Ac5c][NMeV][NMeD]-Piperidide; lactam N-11) showed an IC50 of 3.7 nM.
Work on CC[C@H](C)[C@@H]1NC(=O)[C@H](C)N(C)C(=O)C[C@@H](C)NC(=O)[C@H](CC(C)C)N(C)C(=O)[C@H](Cc2ccccc2)N(C)C(=O)[C@H](CC(C)C)NC(=O)[C@H](CCc2c(F)c(F)c(F)c(F)c2F)NC(=O)CN(C)C(=O)[C@H](Cc2ccc(Cl)cc2)N(C)C(=O)CN(C)C(=O)CN(C)C1=O [Compound 2091] (cyclo(I[Sar][Sar][NMePhe(4-Cl)][Sar][X33]L[NMeF][NMeL][d(β3hA)][NMeA])) yielded an IC50 of 270 nM.
For CCO[C@@H]1C[C@H]2C(=O)NC3(CCCC3)C(=O)N(C)[C@@H]([C@@H](C)CC)C(=O)N(C)[C@H](C)CC(=O)N(C)[C@@H](CC(C)C)C(=O)N[C@@H]([C@@H](C)CC)C(=O)N(C)[C@@H](C)C(=O)N3CC[C@H]3C(=O)N(CC)[C@@H](Cc3ccc(C(F)(F)F)cc3)C(=O)N(C)CC(=O)N[C@@H](CCc3ccc(C(F)(F)F)c(Cl)c3)C(=O)N2C1 [Compound 932] (cyclo([Ac5c][NMeI][NMedβ3hAla][NMeL]I[NMeA][Aze][NEtPhe(4-CF3)][Sar][hPhe(3-Cl-4-CF3)][Hyp](Et))), the IC50 was 5.4 nM.
